Measured values reported in patent US12226455B2, “Medical composition for treating cardiac wasting and cachexia” (RELAXERA Pharmazeutische GmbH & Co. KG, priority 2019, dated 2025).
Marks after values point to notes of the source that are not given here.

How the values were obtained:
[1] = tested on: patients with advanced cancer in the hospice setting; test: Ability of self-care (personal daily hygiene without help), yes-or-no level (clinical study); format: in vivo, human; conditions: n=20
Protocol: (§1) 30 patients with advanced cancer in the hospice setting are included randomized and double-blind in a clinical study to a 10-day continuous sc. or iv. infusion of either synthetic human relaxin-2 (25 micrograms/kg body weight/day) (n=20) or placebo (n=10). The following exploratory clinical end-points are assessed at baseline and during treatment (day 3 and day 10): • 1. Patients are asked to report their current level of both dyspnea and general wellbeing relative to baseline using seven-level Likert scales. • 2. In the context of this study, ability of self-care is defined as ability to perform the measures of personal daily hygiene (washing, tooth-brushing) without help. • 3. Congestion is assessed as percentage of patients showing ankle edema or rales upon auscultation. • 4. Plasma levels of NT-proBNP (N-terminal fragment of pro-brain natriuretic peptide), a biomarker of cardiac decompensation, are determined. • 5. The four-meter gait speed (4MGS) is measured.

NT-proBNP = test: Plasma levels of NT-proBNP, biomarker of cardiac decompensation (clinical study); format: in vivo, human; conditions: n=20; for Plasma NT-proBNP, median: 25 micrograms/kg body weight/day
Protocol: as §1

[2] = tested on: patients with advanced cancer in the hospice setting; test: Four-meter gait speed (4MGS) (clinical study); format: in vivo, human; conditions: n=20
Protocol: as §1

[3] = tested on: patients with advanced cancer in the hospice setting; test: Level of dyspnea relative to baseline on a seven-level Likert scale (clinical study); format: in vivo, human; conditions: n=20
Protocol: as §1

[4] = continuous subcutaneous infusion over 24 weeks; cited from earlier work
[5] = tested on: hospice patients with advanced, incurable cancer; test: Overall conclusion of the 10-day clinical study in hospice patients; format: in vivo, human; conditions: continuous treatment for 10 days
Protocol: as §1

[6] = tested on: patients with advanced cancer in the hospice setting; test: Level of general wellbeing relative to baseline on a seven-level Likert scale (clinical study); format: in vivo, human; conditions: 25 micrograms/kg body weight/day, n=20
Protocol: as §1

[7] = tested on: patients with advanced cancer in the hospice setting; test: Congestion: ankle edema or rales upon auscultation, four-level scale (clinical study); format: in vivo, human; conditions: n=20
Protocol: as §1

[8] = Day 3, 25 micrograms/kg body weight/day
[9] = Day 10, 25 micrograms/kg body weight/day
[10] = Day 3, 25 micrograms/kg body weight/day continuous sc. or iv. infusion

Q: Which “Ability of self-care, absolute number of patients” value ([1]; Baseline) does the source give for human relaxin-2 here?
A: Its value is 5.

Q: What about the “Ability of self-care, percentage of patients” value ([1]; Baseline) of the same substance?
A: The value was 25%.

Q: And the “Ability of self-care, absolute number of patients” value [1, 8]?
A: Its value is 7.

Q: And the “Ability of self-care, percentage of patients” value [1, 8]?
A: The value was 35%.

Q: What about the “Ability of self-care, absolute number of patients” value [1, 9] of the same substance?
A: The value was 17.

Q: And the “Ability of self-care, percentage of patients” value [1, 9]?
A: The value was “(85)* %”.

Q: And the “Plasma NT-proBNP, median (IQR)” value (NT-proBNP; Baseline)?
A: The value was 3438 (597-4175) pg/ml.

Q: And the “Plasma NT-proBNP, median” value (NT-proBNP; Day 3)?
A: The value was 1813 pg/mL.

Q: And the “Plasma NT-proBNP, median” value (NT-proBNP; Day 10)?
A: The value was 778 pg/mL.

Q: And the “Four-meter gait speed, median” value ([2]; Baseline)?
A: Its value is 0.56 m/s.

Q: What about the “Unable to walk 4 m, % of patients” value ([2]; Baseline) of the same substance?
A: The value was 35%.

Q: And the “Unable to walk 4 m, absolute number of patients” value ([2]; Baseline)?
A: Its value is 7.

Q: And the “Four-meter gait speed, median” value [2, 8]?
A: The value was 0.66 m/s.

Q: And the “Unable to walk 4 m, % of patients” value [2, 8]?
A: The value was 25%.

Q: And the “Unable to walk 4 m, absolute number of patients” value [2, 8]?
A: Its value is 5.

Q: What about the “Four-meter gait speed, median” value [2, 9] of the same substance?
A: The value was 0.86* m/s.

Q: And the “Unable to walk 4 m, % of patients” value [2, 9]?
A: Its value is “(15)^# %”.

Q: What about the “Unable to walk 4 m, absolute number of patients” value [2, 9] of the same substance?
A: Its value is 3.

Q: What about the “Level of dyspnea: markedly or moderately improved, absolute number of patients” value [3, 10] of the same substance?
A: The value was 8.

Q: And the “Level of dyspnea: markedly or moderately improved, percentage of patients” value [3, 10]?
A: Its value is “(40)^# %”.

Q: And the “Level of dyspnea: markedly or moderately worsened, absolute number of patients” value [3, 8]?
A: Its value is 1.

Q: What about the “Level of dyspnea: markedly or moderately worsened, percentage of patients” value [3, 8] of the same substance?
A: The value was “(5)^# %”.

Q: What about the “Level of dyspnea: markedly or moderately improved, absolute number of patients” value [3, 9] of the same substance?
A: Its value is 12.

Q: What about the “Level of dyspnea: markedly or moderately improved, percentage of patients” value [3, 9] of the same substance?
A: Its value is “(60)^# %”.

Q: And the “Level of dyspnea: markedly or moderately worsened, absolute number of patients” value [3, 9]?
A: Its value is 1.

Q: What about the “Level of dyspnea: markedly or moderately worsened, percentage of patients” value [3, 9] of the same substance?
A: The value was “(5)^# %”.

Q: What about the “Physiological changes under relaxin infusion” value [4] of the same substance?
A: The value was “sustained physiological changes which closely mimicked those seen in human pregnancy”.

Q: What about the “Clinical signs of cardiac decompensation (congestion, dyspnea, circulating NT-proBNP)” value [5] of the same substance?
A: The value was “ameliorates clinical signs of cardiac decompensation”.

Q: What about the “Clinical status of hospice patients” value [5] of the same substance?
A: The value was “markedly improves the clinical status”.

Q: And the “Level of general wellbeing: markedly or moderately improved, absolute number of patients” value ([6]; Day 3)?
A: Its value is 9.

Q: What about the “Level of general wellbeing: markedly or moderately improved, percentage of patients” value ([6]; Day 3) of the same substance?
A: The value was “(45)# %”.

Q: What about the “Level of general wellbeing: markedly or moderately worsened, absolute number of patients” value ([6]; Day 3) of the same substance?
A: Its value is 2.

Q: And the “Level of general wellbeing: markedly or moderately worsened, percentage of patients” value ([6]; Day 3)?
A: The value was “(10)# %”.

Q: And the “Level of general wellbeing: markedly or moderately improved, absolute number of patients” value ([6]; Day 10)?
A: Its value is 11.

Q: What about the “Level of general wellbeing: markedly or moderately improved, percentage of patients” value ([6]; Day 10) of the same substance?
A: The value was “(55)# %”.

Q: And the “Level of general wellbeing: markedly or moderately worsened, absolute number of patients” value ([6]; Day 10)?
A: The value was 1.

Q: And the “Level of general wellbeing: markedly or moderately worsened, percentage of patients” value ([6]; Day 10)?
A: The value was 5%.

Q: What about the “Congestion: moderate or severe edema, absolute number of patients” value ([7]; Baseline) of the same substance?
A: Its value is 15.

Q: What about the “Congestion: moderate or severe edema, percentage of patients” value ([7]; Baseline) of the same substance?
A: The value was “(75) %”.

Q: And the “Congestion: moderate or severe rales, absolute number of patients” value ([7]; Baseline)?
A: Its value is 16.

Q: And the “Congestion: moderate or severe rales, percentage of patients” value ([7]; Baseline)?
A: The value was “(80) %”.

Q: And the “Congestion: moderate or severe edema, absolute number of patients” value [7, 8]?
A: The value was 10.

Q: What about the “Congestion: moderate or severe edema, percentage of patients” value [7, 8] of the same substance?
A: Its value is “(50) %”.

Q: What about the “Congestion: moderate or severe rales, absolute number of patients” value [7, 8] of the same substance?
A: Its value is 8.

Q: And the “Congestion: moderate or severe rales, percentage of patients” value [7, 8]?
A: Its value is “(40)^# %”.

Q: And the “Congestion: moderate or severe edema, absolute number of patients” value [7, 9]?
A: The value was 6.

Q: What about the “Congestion: moderate or severe edema, percentage of patients” value [7, 9] of the same substance?
A: Its value is “(30)^# %”.

Q: What about the “Congestion: moderate or severe rales, absolute number of patients” value [7, 9] of the same substance?
A: The value was 5.

Q: What about the “Congestion: moderate or severe rales, percentage of patients” value [7, 9] of the same substance?
A: The value was “(25)^# %”.
